According to patent US11174235B2, “Carboxy alkyl-ester anti-agglomerants for the control of natural gas hydrates” (ChampionX USA Inc., priority 2018, dated 2021):

Assay: Sapphire rocking cell anti-agglomerant test
Settings: dose needed for a pass ranking
Protocol: A Sapphire Rocking Cell RCS is commercially available from PSL Systemtechnik in Germany. The Sapphire Rocking Cell is a laboratory instrument used to test the performance of low dosage hydrate inhibitors. The compounds were evaluated based on their ability to effectively minimize the size of gas hydrate agglomerate particles and disperse those particles into the hydrocarbon phase. Chemical performance was evaluated by determining the maximum treatable water cut (water to oil ratio) and the minimum chemical dosage to register a pass in the rocking cell test.
A rocking cell has two parts, a manifold and a cell body. The manifold is made up of stainless steel fittings that are welded together. It has three stems. An inlet stem is used to charge gas into the cell. An outlet stem is used to release the gas out of the cell. The third stem connects to a transducer, which measures the pressure inside of the cell. The cell body has three layers. The outer layer is a polycarbonate tube, which has a thickness of 0.7 cm. The middle layer is made of stainless steel metal and is connected to the manifold. The inner layer is a high-pressure sapphire tube, which has an outer diameter of 2.8 cm, inner diameter of 1.85 cm, and length of 5 cm. This sapphire tube can handle up to 3000 psi. A stainless steel ball which has a diameter of 1.6 cm is located inside the sapphire tube to induce turbulence and mix fluids during the rocking process.
Test fluids usually contain three components. For the anti-agglomerate test, 7.2 mL of warm crude oil was first injected into the cell. Next, a solution of 30,000 total dissolved solids (TDS) ([…]) of NaCl synthetic brine was injected into the cell to make a 40% water cut mixture. The anti-agglomerate test compound was the final component injected into the cell. The dosage of the test compound was based on the volume of aqueous phase. The initial temperature was set to 21° C. Observations were made every two to three hours, before the rocking was stopped, and also immediately after the restart.
Each cell was charged with Green Canyon gas and pressurized up to 2500 psi. All cells rocked for at least 1.5 to 2 hours until fluid was saturated and pressure stabilized. The rocking was ceased and the tank temperature was reduced to the set point of 4° C. over approximately 8 hours. The cells were then reboosted to a pressure of 2500 psi and remained static for 24 hours. Rocking was restarted for 2 hours with frequent observations to rank each cell with a ranked set of pass/fail criterion. Pressure and tank temperature data was recorded during this time.
The pass/fail criteria are based on the ability of the ball in the rocking cell to move within the sapphire tube. […] In contrast, the anti-agglomerant fails if the ball's movement is obstructed or completely stopped by the formation of gas hydrate agglomerates. The anti-agglomerate's performance is borderline when there are observable gas hydrate agglomerates and at least some of the agglomerates are stuck to the walls of the sapphire tube; when these agglomerates are present and the movement of the ball is not restricted, the anti-agglomerant ranking is a borderline pass.

CCCCN(CCCC)CCCN(CCC(=O)O)C(CC(=O)O)C(=O)OCCCCCCCCCCC(C)C (stereo not drawn) [Reaction 24]
Minimum Effective Dose (MED) (Oil B (25% w/c)): 2.0 vol. % | Minimum Effective Dose (MED) (Oil C (35% w/c)): 3.0 vol. % | Minimum Effective Dose (MED) (Oil D (25% w/c)): 2.0 vol. %

CCCCCCCCCCCCOC(=O)C(CC(=O)O)NCCCN1CCCCCC1 (stereo not drawn) [Reaction 26]
Minimum Effective Dose (MED) (Oil B (25% w/c)): 2.0 vol. % | Minimum Effective Dose (MED) (Oil C (35% w/c)): >3.0 vol. % | Minimum Effective Dose (MED) (Oil D (25% w/c)): 2.0 vol. %
